Laboratory results as given in US20150023920A1, “NOVEL COMPOSITIONS AND METHODS FOR PREVENTING OR TREATING CANCER METASTASIS” (Drexel University, priority 2012, published 2015).
Entries after “also recorded” stand apart in the source; their conditions may differ.

Legend:
[1] = test system: mouse models of acute gout; details: in vivo; cited from earlier work
[2] = test system: other members of the interleukin-1 family, including interleukin-1 alpha; details: cited from earlier work
[3] = test system: PC3-ML bone-metastatic prostate cancer cells; test: Animal model of metastasis, intracardiac inoculation of cancer cells; format: in vivo, mouse; details: mice inoculated via systemic arterial circulation with shRNA-transduced PC3-ML cells, four weeks post-inoculation
Procedure: Five week-old male immunocompromised mice (CBI 7-SCRF) were obtained from Taconic and housed in a germ-free barrier. At six weeks of age, mice were anesthetized with 100 mg/kg ketamine and 20 mg/kg xylazine and successively inoculated in the left cardiac ventricle with cancer cells (5×10^4 in 100 μl of serum-free DMEM/F12). Cell inoculation was performed using a 30-gauge needle connected to a 1 ml syringe. The delivery of the cell suspension in the systemic blood circulation was validated by the co-injection of blue-fluorescent 10 μm polystyrene beads (Invitrogen-Molecular Probes). Animals were randomly assigned to different experimental groups and sacrificed at specified time points following inoculation. Organs were harvested and prepared as described below and tissue sections inspected blindly for metastatic lesions. The homogeneous and numerically-consistent distribution of the beads in adrenal glands and lungs collected at necropsy and inspected by fluorescence microscopy were used as discrimination criteria for the inclusion of animals in the studies. […]
Bright-field and fluorescent images of skeletal metastases were acquired using an Olympus stereomicroscope coupled to an Olympus DT70 CCD color camera. Digital images were analyzed with ImageJ software and calibrated for measurement by obtaining a pixel to millimeter ratio. […]

IL-1β in PC3-ML cells = test: IL-1β silencing by stable shRNA transduction in PC3-ML cells (Western blot, ELISA); format: cell-based, human; details: stable transduction of shRNA
Procedure: Mission TRC lentiviral shRNA vectors (Sigma-Aldrich) were used to knock down IL1-β. The following shRNA sequence was used:
Lentiviral particles were used to infect […] cell cultures, overnight in the presence of 8 μg/ml polybrene (Millipore). The successful infected cells were selected for the ability to proliferate in media containing G418 ([…]). The resulting cells were characterized by Western blot analysis using an antibody against IL1β.
(§1) Cell lysates were obtained and SDS-PAGE and Western Blot analysis performed as previously described, with few modifications. Membranes were blotted with antibodies targeting PDGFRα, PDGFRβ, IL1-β (SC-7884, Santa Cruz, Dallas, Tex.), Actin (A-2066, Sigma-Aldrich, St. Louis, Mo.), COX-2 (ab15191, AbCam, Cambridge, UK) Elafin (SC-20637, Santa Cruz) and GAPDH (DI6H11, Cell Signaling Technology, Beverly, Mass.). Primary antibody binding was detected using an HRP-conjugated secondary antibody (Pierce). Chemiluminescence signals were obtained using SuperSignal West Femto reagents (Pierce) and detected with the Fluorochem 8900 imaging system and relative software (Alpha Innotech).
The concentrations of IL-1β and CXCL6 were measured by ELISA as described in the manufacturers' protocols. […] The supernatant was then collected and the protein concentration was measured using Quantikine kits (R&D systems).

[4] = test system: production of interleukin-1β; details: cited from earlier work
[5] = test system: COX-2 expression in human bone Mesenchymal Stem Cells (MSCs); test: COX-2 expression in human MSCs exposed to PC3-ML conditioned medium (Western blot); format: cell-based; details: Anakinra 10 μg/ml pre-treatment 30 minutes; MSCs exposed 48 hours to PC3-ML conditioned medium
Procedure: Bone marrow-derived Human Mesenchymal Stem cells (MSCs) (Lonza, Allendale, N.J.) were used between passage 5 and 8 and cultured in MSC growth medium (α-MEM (Invitrogen) supplemented with 10% FBS, 1 ng/ml bFGF (R&D Systems, Minneapolis, Minn.), and 0.1% gentamicin).
as §1
Conditioned media were obtained according to Li et al., 2012, Cancer Disc. 2:840-55. In brief, 7.5×10^5 PC3-ML cells were plated in 15 ml of DMEM supplemented with 10% fetal bovine serum and 0.1% gentamicin and cultured for five days. The medium from each dish was then collected and centrifuged at 2000 rpm for 10 minutes and then used fresh as described below. […]

For “XOMA-052: potent anti-IL-1β humanized neutralizing antibody”, which “activity in mouse models of acute gout” value [1] is on record?
Its value is “active”.

Which “cross-reactivity with other members of the interleukin-1 family, including interleukin-1 alpha” value [2] does the source give for “Canakinumab: human monoclonal antibody targeted at interleukin-1 beta” here?
The value was “no cross-reactivity”.

Which “reduction of size of bone-metastatic tumors” value [3] does the source give for “5′-CGGCCAGGATATAACTGACTT-3′ (listed as DNA, chemistry not given here) [shRNA, Mission TRC lentiviral shRNA used to knock down IL1-β in PC3-ML cells]” here?
The value was “approximately 70%”.

And the “IL-1β expression in PC3-ML cells after silencing” value (IL-1β in PC3-ML cells)?
The value was “expression levels lower than PC3-N cells”.

Which “inhibitory activity against production of interleukin-1β” value [4] does the source give for CSc1ccc(-c2nn(Cc3ccccc3)c(=O)cc2-c2ccc(Cl)cc2)cc1 [K-832, 2-benzyl-5-(4-chlorophenyl)-6-[4-(methylthio)phenyl]-2H-pyridazin-3-one] here?
The value was “high inhibitory activity”.

For “Anakinra: recombinant, non-glycosylated version of human IL-1 receptor antagonist prepared from genetically modified E. coli”, which “Increase in COX-2 expression in MSCs induced by PC3-ML conditioned medium” value [5] is on record?
The value was “completely prevent; also recorded: inhibited”.
